# Test results reported in paper PMC5342526, “Identification of Bisindolylmaleimide IX as a potential agent to treat drug-resistant BCR-ABL positive leukemia” (Oncotarget, 2016).
# Where two headings read alike, the source gives them in different places.
# Legend:
# [1] = test system: B-Raf in BCR-ABL positive BaF3 cells; assay: B-Raf phosphorylation, western blot; assay type: cell-based, murine
# Procedure: Activation and expression of Erk, Mek1, and Raf were determined by western blot. B. Inhibition of Erk decreased the cell survival rates in BaF3 cells expressing BCR-ABL compared to control cells. […] C. […] N=3. Right panel: Western blot results showing that B-Raf was knocked down in these cells.
# p53 in primary MEFs = assay: p53 protein level by western blot (screen)
# Procedure: Cells were lysed in TNEN buffer (50 mM Tris, 150 mM NaCl, 5 mM EDTA, 0.5% NP-40, and 0.1% Triton X-100) supplemented with 1 mM NaF, Na2VO3, 1 mM PMSF, and 1 μg/ml of aprotonin, leupeptin, and pepstatin A. Protein concentrations were determined using a Bio-Rad assay. Proteins were resolved by SDS-PAGE and transferred to polyvinylidene difluoride membranes (Millipore).
# [2] = test system: K562, HL-60, MCF7, U251, AGS, MGC-803, U2OS and Saos-2 cells; assay type: cell-based
# From the text: The reference wavelength was 630 nm.
# www.impactjournals.com/oncotarget/ Oncotarget, Supplementary Materials 2016 […]
# γH2AX foci in MEFs = assay: γH2AX DNA damage foci, immunofluorescent staining; assay type: cell-based, mouse; conditions: 2.5 μM, 4 hrs
# Procedure: MEFs or HCT116 cells were cultured on cover slips while Baf3 cells were cultured on slides coated by 0.1mg/ml poly-L-lysine, washed with phosphate-buffered saline (PBS) twice, and then fixed in 4% paraformaldehyde (PFA), which were permeabilized with 0.1% Triton X in PBS for 30 minutes at room temperature. The primary antibodies were diluted in PBS with 1% BSA (1:200). The slides were blocked (1% BSA in PBS) for 60 minutes at room temperature, incubated with primary antibodies overnight at 4°C, and followed by secondary antibody incubation for 60 min at RT. The slides were then mounted and observed under confocal microscope (Leica, Germany). Antibodies against γH2AX were from Bethyl Corporation.
# K562 cells = assay: Wst-1 cell survival assay; conditions: K562, Wst-1
# Procedure: We then evaluated the cytotoxic effect of Bisindolylmaleimide IX in MEFs and HCT116 cells. Different doses of Bisindolylmaleimide IX were applied to the cell cultures and cell survival rates and IC50 were determined with Wst-1 assay.
# To measure cell survival rates after Bisindolylmaleimide IX treatment, cells were plated at 1×10^4 in 96 well plates and cultured for overnight, which were then treated with Bisindolylmaleimide IX for 48 hrs. Cell proliferation reagent WST-1 (Roche) was added to each well and was further incubated for 4 hrs at 37°C. The absorbance was measured against a control using microplate reader at 440 nm. The reference wavelength was 630 nm.
# [3] = test system: tumors derived from HCT116; assay: HCT116 carcinoma xenograft in nude mice; assay type: in vivo, mouse; conditions: 2.5mg/kg for 7 days
# Procedure: Male BALB/cASlac-nude mice (4-week-old) were purchased from Shanghai Slac Laboratory Animal C. LTD. The mice were kept in the SPF mouse facility for 1 week before being inoculated with HCT116 cells. HCT116 cells were harvested by trypsinization, counted and resuspended in PBS at the concentration of 5×10^7/ml. We injected subcutaneously 3×10^6 cells to BALB/cASlac nude mice's back. After 2 weeks, the mice were divided into 3 groups (6 mice per group) and were treated with 5-Iodotubercidin (Itu), Bisindolylmaleimide IX or solvent (PBS). The mice were weighed and the size of tumor measured. The length (L) and width (W) of the tumor were measured with a digital caliper and expressed as tumor volume (0.5L×W^2, mm^3).
compound,measurement,setting,value
COc1cc([C@@H]2c3cc4c(cc3[C@@H](O[C@@H]3O[C@@H]5CO[C@@H](c6cccs6)O[C@H]5[C@H](O)[C@H]3O)[C@H]3COC(=O)[C@H]23)OCO4)cc(OC)c1O [teniposide],phosphorylation of B-Raf,[1],did not affect the phosphorylation of B-Raf
same,survival of BCR-ABL positive BaF3 cells compared with control cells,"BCR-ABL BaF3 cells; 24 hrs, Wst-1",increased survival
NCCNS(=O)(=O)c1cccc2cnccc12 [H-9],p53 protein up-regulation,p53 in primary MEFs,failed to up-regulate p53 in MEFs
CN[C@@H]1C[C@H]2O[C@@](C)([C@@H]1OC)n1c3ccccc3c3c4c(c5c6ccccc6n2c5c31)C(=O)NC4 [staurosporine],cytotoxic effects across cell lines (in words),"[2]; 24 hrs, Wst-1",strong cytotoxic effects in almost all these cell lines
same,p53 protein up-regulation,p53 in primary MEFs,failed to up-regulate p53 in MEFs
Cc1ccc(NC(=O)c2ccc(CN3CCN(C)CC3)cc2)cc1Nc1nccc(-c2cccnc2)n1 [Imatinib],cytotoxic effects across cell lines (in words),[2],specificity to BCR-ABL positive cells
CC(=O)c1c(O)c(C)c(O)c(Cc2c(O)c3c(c(C(=O)/C=C/c4ccccc4)c2O)OC(C)(C)C=C3)c1O [Rottlerin],p53 protein up-regulation,p53 in primary MEFs,failed to up-regulate p53 in MEFs
Cn1cc(C2=C(c3cn(C4CCN(Cc5ccccn5)CC4)c4ccccc34)C(=O)NC2=O)c2ccccc21 [Enzastaurin],γH2AX foci formation,γH2AX foci in MEFs,minimal numbers of foci
same,cytotoxic effect (in words),"BCR-ABL BaF3 cells; BCR-ABL BaF3, 24 hrs, compared among bisindolylmaleimide derivatives",modest cytotoxic effect
same,cytotoxicity (in words),K562 cells,modest cytotoxic effect
Cc1cc(O)c2c(=O)c3c(O)cc(O)c4c5c(O)cc(O)c6c(=O)c7c(O)cc(C)c8c1c2c(c34)c(c78)c65 [Hypericin],p53 protein up-regulation,p53 in primary MEFs,failed to up-regulate p53 in MEFs
COCc1cc(O)c(O)c(O)c1-c1c(COC)cc(O)c(O)c1O [HBDDE],p53 protein up-regulation,p53 in primary MEFs,failed to up-regulate p53 in MEFs
CC1CNCCN1S(=O)(=O)c1cccc2cnccc12 (stereo not drawn) [H-7],p53 protein up-regulation,p53 in primary MEFs,failed to up-regulate p53 in MEFs
COc1cccc2c1C(=O)c1c(O)c3c(c(O)c1C2=O)C[C@@](O)(C(=O)CO)C[C@@H]3O[C@H]1C[C@H](N)[C@H](O)[C@H](C)O1 [doxorubicin],phosphorylation of B-Raf,[1],did not affect the phosphorylation of B-Raf
CCCCCCCCCCCCC/C=C/[C@@H](O)[C@@H](N)CO [Sphingosine],p53 protein up-regulation,p53 in primary MEFs,failed to up-regulate p53 in MEFs
Nc1ncnc2c1c(I)cn2[C@@H]1O[C@H](CO)[C@@H](O)[C@H]1O [5-Iodotubercidin],tumor growth,[3],greatly inhibited tumor growth
same,p53 protein up-regulation,p53 in primary MEFs,up-regulate p53 at the protein levels
CN(C)CCCn1cc(C2=C(c3c[nH]c4ccccc34)C(=O)NC2=O)c2ccccc21 [Bisindolylmaleimide I],γH2AX foci formation,γH2AX foci in MEFs,minimal numbers of foci
same,p53 protein up-regulation,p53 in primary MEFs,failed to up-regulate p53 in MEFs
N#CC(=C(/N)Sc1ccccc1N)/C(C#N)=C(/N)Sc1ccccc1N [U0126],cell death rates in BCR-ABL expressing BaF3 cells versus control cells,BCR-ABL BaF3 cells; inhibition of Erk,increased cell death rates
CCCCCCCCCCCCCCCC(=O)OC(CC(=O)O)C[N+](C)(C)C.[Cl-] (racemic) [Palmitoyl-DL-carnitine Cl],p53 protein up-regulation,p53 in primary MEFs,failed to up-regulate p53 in MEFs
